According to patent US20260355318A1, “MOLECULAR MACHINES FOR TREATMENT OF CANCER, FUNGAL INFECTIONS, OR BACTERIAL INFECTIONS” (priority 2022, published 2026):
Like-named read-outs stand apart in the source and are kept apart here.

Columns and labels:
C. albicans = experiment: MIC, visible-light-activated MMs and conventional antifungals, C. albicans; type: cell-based, Candida albicans (ATCC 18804); conditions: Candida albicans, read-out: MIC of antifungal agent
Procedure: C. albicans cell suspensions were incubated with increasing concentrations of MMs and irradiated with 405-nm light at 292 mW cm^−2 for 5 min (87.6 J cm^−2). The minimum inhibitory concentration (MIC) was defined as the MM concentration resulting in no visible fungal growth after irradiation with 87.6 J cm^−2 of 405-nm light.
(§1) Cell suspensions for susceptibility testing (MMs and conventional antifungals) were prepared per the Clinical & Laboratory Standards Institute (CLSI) guidelines (CLSI, 2017; CLSI, 2008). Before testing, yeasts (C. albicans and S. cerevisiae) were sub-cultured in Sabouraud Dextrose Agar-Emmons Modification (SDAE) plates and grown for 24 h at 30 °C. Five independent colonies from 24-h-old plates were collected and diluted to ~10^4 colony forming units (CFU) per mL in sterile saline (CLSI, 2017). Molds (A. fumigatus and the dermatophytes T. rubrum and M. gypseum) were sub-cultured on SDAE medium and incubated for 7 days at 28 °C. Conidia were recovered by covering the plates with sterile distilled water and scraping the colonies. The suspensions were filtered (8-μm pore size) and diluted in saline to ~10^4 CFU mL^−1 (Santos and Hamdan, 2005).
(§2) After a 30-min incubation in the dark, cell suspensions were transferred to small, sterilized glass beakers, which were then placed in a water bath. Each sample was irradiated with 405-nm light at 292 mW cm^−2 for 5 min, corresponding to a light dose of 87.6 J cm^−2, determined using an S415C thermal power sensor (Thorlabs, Newton, MA, USA). During irradiation, the cell suspensions were agitated with a small metal stirrer. A thermocouple probe (model SC-TT-K-30-36-PP; Omega Engineering, Inc., Stanford, CT, USA) was used to monitor the temperature during irradiation. Irradiated cell suspensions were inoculated in 3-(N-morpholino) propanesulfonic acid (MOPS)-buffered Roswell Park Memorial Institute Medium (RPMI) 1640 (pH 7.0). Tubes were incubated at 30 ° C for 48 h (yeasts) and 28 ° C for 7 days (molds). The antifungal or MM concentration resulting in no visible growth was defined as the minimum inhibitory concentration (MIC) (CLSI, 2017; CLSI, 2008). Similarly prepared cell suspensions were used to determine the MIC of conventional antifungals.

A. fumigatus = experiment: MIC, MMs and antifungals, A. fumigatus; type: cell-based, Aspergillus fumigatus (ATCC 1022); conditions: Aspergillus fumigatus, read-out: MIC of antifungal agent
Procedure: as §1
After a 30-min incubation in the dark, cell suspensions were transferred to small, sterilized glass beakers, which were then placed in a water bath. Each sample was irradiated with 405-nm light at 292 mW cm^−2 for 5 min, corresponding to a light dose of 87.6 J cm^−2, determined using an S415C thermal power sensor (Thorlabs, Newton, MA, USA). During irradiation, the cell suspensions were agitated with a small metal stirrer. […]

S. cerevisiae = experiment: MIC, MMs and antifungals, S. cerevisiae; type: cell-based, Saccharomyces cerevisiae (ATCC 13007); conditions: Saccharomyces cerevisiae, broth microdilution, read-out: MIC of antifungal agent
Procedure: as §1, §2

[1] = system: persister cells of E. coli; experiment: Persister eradication, E. coli; type: cell-based, Escherichia coli; conditions: 1×MIC, 405 nm
Procedure: (§3) Persister cells of E. coli were prepared by adding ampicillin (100 μg mL^−1) to exponential-phase cells (OD600 of ≈0.8) followed by continuous agitation for another 3 b, as previously described (Keren et al., 2004). In the case of S. aureus, almost all stationary-phase are considered to be persistent (Keren et al., 2004). S. aureus cells were grown at 37 ° C and 220 rpm in LB broth to an OD600 of 0.3. Cells were then diluted 1:1000 in 25 mL LB and grown for 16 h at 37 ° C and 220 rpm in 250 mL flasks. […] At specified time points (0, 1, 2, 3, 4 and 5, 10 and 15 min), 50-μL aliquots were removed, serially diluted and spot-plated onto LB agar plates to determine colony-forming units per mL (CFU mL^−1). Only dilutions that yielded 10-100 colonies were counted. Results were expressed as log (N/NO) whereby N is the CFU mL^−1 at each irradiation time point and NO is the initial CFU mL^−1 of the corresponding sample. […].

S. aureus [2] = experiment: Time-kill / light-dose experiments, S. aureus; type: cell-based, Staphylococcus aureus; conditions: 2×MIC, 146 mW cm^−2 405 nm
Procedure: (§4) Serial dilutions of irradiated cell suspensions were prepared in PBS. A volume of 10 AL of the appropriate serial dilutions was spot-plated onto LB agar plates. Following overnight incubation at 30 or 37 ° C, depending on the strain, bacterial viability was assessed as colony forming units (CFU) per mL. Results were expressed as log (N/NO) whereby N is the CFU mL^−1 at each irradiation time point and NO is the initial CFU mL^−1 of the corresponding sample. Only dilutions that yielded 10-100 colonies were counted.

P. aeruginosa [3] = experiment: Time-kill / light-dose experiments, P. aeruginosa; type: cell-based, Pseudomonas aeruginosa; conditions: 2×MIC, 146 mW cm^−2 405 nm
Procedure: as §4

A. baumannii [4] = experiment: MIC, A. baumannii; type: cell-based, Acinetobacter baumannii; conditions: Acinetobacter baumannii, read-out: MIC of MM
Procedure: (§5) The appropriate volume of an MM stock at 8 mM necessary to achieve a concentration ranging from 0.3125 to 40 μM was pipetted into a 2 mL microcentrifuge tube to which 1 mL of cell suspension prepared as previously described was added. Corresponding negative controls (DMSO only) were prepared in the same way. The mixture was gently mixed by pipetting and incubated in the dark at 30 or 37 ° C, depending on the strain, for 30 min with agitation (220 rpm). Afterward, MM- or DMSO-treated cells were dispensed in one well of a 24-well plate positioned in the center of the light beam (405 nm LED Light, Prizmatix, UHP—F-5-405) placed at the appropriate distance necessary to achieve the desired light intensity of 304 mW cm-2, 146 mW cm2 or 87 mW cm2, as measured with a handheld digital power meter console coupled to an S415C thermal power sensor head (Thorlabs, Newton, MA, USA). The temperature during irradiation was monitored using a thermocouple probe (Model SC-TT-K-30-36-PP; Omega Engineering, Inc., Stanford, CT, USA). Samples were agitated during irradiation. Dark controls were prepared as previously described except that no irradiation was provided.
(§6) For MIC determination, samples treated with a range of concentrations of the different MM, as described above and were irradiated one at a time for 5 min at 146 mW cm^−2 (43.8 J cm^−2), after which irradiated aliquots were collected and inoculated into 1 mL MHB in a 2 mL microcentrifuge tube. Samples were incubated overnight at 30 or 37 ° C, depending on the strain, without agitation. Corresponding non-irradiated samples and negative controls (without bacteria) were also included. The following day, cultures were inspected for growth and the MIC was identified. The experimental procedure used to determine the MIC of visible light-activated MMs is schematically depicted in FIG. 26.

E. coli [5] = experiment: Time-kill / light-dose experiments, E. coli; type: cell-based, Escherichia coli; conditions: for time to reduce cell number to limit of detection: E. coli, 2×MIC, 146 mW cm^−2 405 nm
Procedure: as §4

E. coli [6] = experiment: MIC, E. coli; type: cell-based, Escherichia coli BW25113; conditions: Escherichia coli, read-out: MIC of MM
[7] = system: persister cells of S. aureus; experiment: Persister eradication, S. aureus; type: cell-based, Staphylococcus aureus; conditions: 1×MIC, 405 nm
Procedure: as §3

S. aureus [8] = experiment: MIC, S. aureus; type: cell-based, Staphylococcus aureus; conditions: Staphylococcus aureus, read-out: MIC of MM
Procedure: as §5, §6

P. aeruginosa [9] = experiment: MIC, P. aeruginosa; type: cell-based, Pseudomonas aeruginosa; conditions: Pseudomonas aeruginosa, read-out: MIC of MM
Procedure: as §5, §6

A. baumannii [10] = experiment: Time-kill / light-dose experiments, A. baumannii; type: cell-based, Acinetobacter baumannii; conditions: 2×MIC, 146 mW cm^−2 405 nm
Procedure: as §4

[11] = system: persister cells of P. aeruginosa; experiment: Persister eradication, P. aeruginosa; type: cell-based, Pseudomonas aeruginosa; conditions: 1×MIC, 405 nm
[12] = system: persister cells of A. baumannii; experiment: Persister eradication, A. baumannii; type: cell-based, Acinetobacter baumannii; conditions: 1×MIC, 405 nm
[13] = system: biofilms of P. aeruginosa and S. aureus; experiment: Biofilm metabolically active cells (ATP); type: cell-based, Pseudomonas aeruginosa, Staphylococcus aureus; conditions: 2×MIC, antibiotics 45 min, MMs 15 min + light, vs untreated
Procedure: (§7) This combination of methods is effective at evaluating the antibiofilm potential of chemicals (Stiefel et al., 2016). P. aeruginosa and S. aureus were grown overnight in tryptic soy broth (TSB) medium. The overnight cultures were diluted in 1:100 in fresh media and 100 μL aliquots were distributed in a 96-well plate. After 24 h of static growth at 37 ° C, planktonic cells were removed by inverting the plate onto a stack of paper towels, and the biofilm was washed three times with PBS. After washing, MM 1, MM 5, or MM 6 were added at 2×MIC to the biofilm and incubated statically in the dark for 60 min. The biofilm was then irradiated for 15, 30, or 45 min at 146 mW cm2. For the determination of the total bacterial number, acridine orange solution (2% in H2O) diluted 1:100 in Walpole's buffer (27.2 g L-1 sodium acetate trihydrate, adjusted to pH 4 with glacial acetic acid) was added to the wells.
For quantification of viable cells in biofilms, following the addition of 100 μL […] of TSB to each well, bacteria were detached from the biofilm by thorough mixing, after which […] of BacTiter-Glo™ reagent, prepared according to the manufacturer's instructions, was added to each well.

[14] = system: biofilms of P. aeruginosa and S. aureus; experiment: Biofilm total bacterial cell number (acridine orange); type: cell-based, Pseudomonas aeruginosa, Staphylococcus aureus; conditions: 2×MIC, vs untreated controls
Procedure: as §7

E. coli [15] = experiment: Effect of ROS scavengers on MM 1-induced killing of E. coli; type: cell-based, Escherichia coli; conditions: MM 1 2×MIC, NAC 1 mM, TU 100 mM
Source text: All results are shown as the mean of at least 3 biological replicas±standard error of the mean.

[16] = E. coli BW25113, 405 nm light 43.8 J cm^−2
[17] = E. coli, Table 9, 405 nm light 43.8 J cm^−2

C[C@@H](c1ncncc1F)[C@](O)(Cn1cncn1)c1ccc(F)cc1F [Voriconazole (VRC), Voriconazole]
MIC (C. albicans): 0.03 µg/mL
MIC (A. fumigatus): 0.5 µg/mL
MIC (S. cerevisiae): 0.125 µg/mL

Br.COc1cc2c(c3ccccc13)/C(=C1\c3ccccc3Sc3ccc(C#CCCCC[P+](c4ccccc4)(c4ccccc4)c4ccccc4)cc31)[C@H](C)C2 (stereo in doubt) [MM 4, (6-(9-(5-methoxy-2-methyl-2,3-dihydro-1H-cyclopenta[a]naphthalen-1-ylidene)-9H-thioxanthen-2-yl)hex-5-yn-1-yl)triphenylphosphonium bromide]
time to reduce persister cells to limit of detection [1]: 5 min
time to complete elimination (S. aureus [2]): 2 min
time to reduce cell number to limit of detection (P. aeruginosa [3]): 3 min
MIC (A. baumannii [4]): 2.5 µM
time to reduce cell number to limit of detection (E. coli [5]): 4 min
bacterial toxicity in the absence of light (E. coli [5]; FIG. 31, different bacterial strains, no light): Some toxicity of the MM itself (in the absence of light)
MIC (E. coli [6]; [16]): 0.625 µM
MIC (E. coli [6]; [17]): 1 µM
time to reduce persister cells to limit of detection [7]: 3 min
MIC (S. aureus [8]): 0.078 µM
MIC (P. aeruginosa [9]): 0.625 µM
time to reduce cell number to limit of detection (A. baumannii [10]): 3 min

C[C@@H]1Cc2cc(NCCN(C)C)c3ccccc3c2C1=C1c2ccccc2Sc2ccccc21 (stereo in doubt) [MM 2, N^1,N^1-Dimethyl-N^2-(2-methyl-1-(9H-thioxanthen-9-ylidene)-2,3-dihydro-1H-cyclopenta[a]naphthalen-5-yl) ethane-1,2-diamine]
time to reduce persister cells to limit of detection [1]: 5 min
time to complete elimination (S. aureus [2]): 4 min
MIC (A. baumannii [4]): 20 µM
time to reduce persister cells to limit of detection [11]: 15 min
time to reduce cell number to limit of detection (E. coli [5]): 10 min
MIC (E. coli [6]; [16]): 32 µM
MIC (E. coli [6]; [17]): 32 µM
time to reduce persister cells to limit of detection [7]: 3 min
MIC (S. aureus [8]): 1.25 µM
MIC (P. aeruginosa [9]): 5 µM

C[C@@H]1Cc2cc(N(C)CCN(C)C)c3ccccc3c2C1=C1c2ccccc2Sc2ccccc21 [MM 3, N^1,N^1,N^2-trimethyl-N^2-(2-methyl-1-(9H-thioxanthen-9-ylidene) ~2,3-dihydro-1H-cyclopenta[a]naphthalen-5-yl) ethane-1,2-diamine]
time to reduce persister cells to limit of detection [1]: 10 min
time to complete elimination (S. aureus [2]): 4 min
time to reduce cell number to limit of detection (P. aeruginosa [3]): 10 min
MIC (A. baumannii [4]): 20 µM
MIC (E. coli [6]; [17]): 16 µM
time to reduce persister cells to limit of detection [12]: 15 min
time to reduce persister cells to limit of detection [7]: 10 min
MIC (S. aureus [8]): 1.25 µM
MIC (P. aeruginosa [9]): 5 µM
time to reduce cell number to limit of detection (A. baumannii [10]): 10 min

CO[C@H]1/C=C/O[C@@]2(C)Oc3c(C)c(O)c4c(O)c(c(/C=N/N5CCN(C)CC5)c(O)c4c3C2=O)NC(=O)/C(C)=C\C=C\[C@H](C)[C@H](O)[C@@H](C)[C@@H](O)[C@@H](C)[C@H](OC(C)=O)[C@@H]1C [rifampin]
reduction in metabolically active cells in biofilm [13]: 18%
reduction in total bacterial cell number in biofilm [14]: ≤ 64%

CC[C@H](C)C[C@H](C)CCCCCCCCC(=O)N[C@H]1C[C@@H](O)[C@@H](NCCN)NC(=O)[C@@H]2[C@@H](O)CCN2C(=O)[C@H]([C@H](O)CCN)NC(=O)[C@H]([C@H](O)[C@@H](O)c2ccc(O)cc2)NC(=O)[C@@H]2C[C@@H](O)CN2C(=O)[C@H]([C@@H](C)O)NC1=O [Caspofungin (CAS), Caspofungin]
MIC (C. albicans): 0.25 µg/mL
MIC (S. cerevisiae): 0.5 µg/mL

NC(N)=S [thiourea]
protection against MM-induced killing by ROS scavenger (E. coli [15]): does not protect against MM-induced killing in E. coli

CC(=O)N[C@@H](CS)C(=O)O [N-acetyl-L-cysteine]
protection against MM-induced killing by ROS scavenger (E. coli [15]): does not protect against MM-induced killing in E. coli
